Key:
[1] = Experimental octanol/water LogD; assay type: physicochemical; details: pH 7.4, octanol:buffer
[2] = system: iPSC-derived BMECs; assay: Temperature dependence of permeability; assay type: in vitro ADME, human; details: normalized to 37°C condition; Student's t-test
[3] = system: iPSC-derived BMECs; assay: Directional; assay type: in vitro ADME, human; details: normalized to AB permeability; Student's t-test
[4] = biological target: T1, BCRP (Homo sapiens, UniProt Q9UNQ0); assay: Permeability with BCRP inhibitor Ko143 in iPSC-derived BMEC; assay type: in vitro ADME; details: 1 μM Ko143, 60 min pre-incubation; normalized to no inhibitor
T1 sequence (Q9UNQ0 1-655): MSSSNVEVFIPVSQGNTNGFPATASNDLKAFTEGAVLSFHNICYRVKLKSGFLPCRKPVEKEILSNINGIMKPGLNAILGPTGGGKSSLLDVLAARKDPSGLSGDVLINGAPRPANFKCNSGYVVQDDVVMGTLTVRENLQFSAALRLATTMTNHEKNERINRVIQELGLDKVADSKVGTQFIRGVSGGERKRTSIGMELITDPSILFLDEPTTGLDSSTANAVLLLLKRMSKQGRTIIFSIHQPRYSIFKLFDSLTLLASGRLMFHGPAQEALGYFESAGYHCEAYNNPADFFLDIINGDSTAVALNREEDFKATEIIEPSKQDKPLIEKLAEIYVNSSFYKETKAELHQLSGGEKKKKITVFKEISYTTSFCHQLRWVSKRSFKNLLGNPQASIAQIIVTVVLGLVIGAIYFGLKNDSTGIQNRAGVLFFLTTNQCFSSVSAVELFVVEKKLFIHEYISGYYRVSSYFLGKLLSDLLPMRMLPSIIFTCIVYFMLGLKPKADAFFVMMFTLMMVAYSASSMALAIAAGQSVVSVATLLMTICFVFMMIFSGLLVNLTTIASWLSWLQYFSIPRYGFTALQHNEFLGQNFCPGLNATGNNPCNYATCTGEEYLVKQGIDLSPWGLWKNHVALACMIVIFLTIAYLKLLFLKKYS

[5] = system: MRPs; assay: Permeability with pan-MRP inhibitor MK571 in iPSC-derived BMEC; assay type: in vitro ADME, human; details: 10 μM MK571, 60 min pre-incubation; normalized to no inhibitor
[6] = system: iPSC-derived BMECs; assay: Permeability across iPSC-derived BMEC Transwell in vitro BBB model; details: for permeability (Pe) across iPSC-BMEC: Transwell, APC analogs 1 μM in PM20, 2 hours, mean±S.E., n≥3
[7] = biological target: P-gp (Homo sapiens, UniProt P08183); assay: Permeability with P-gp inhibitor PSC833 in iPSC-derived BMEC; assay type: in vitro ADME; details: 1 μM PSC833, 60 min pre-incubation; normalized to no inhibitor
[8] = Permeability across iPSC-derived BMEC Transwell in vitro BBB model; details: human

P-gp, sequence (P08183 whole entry): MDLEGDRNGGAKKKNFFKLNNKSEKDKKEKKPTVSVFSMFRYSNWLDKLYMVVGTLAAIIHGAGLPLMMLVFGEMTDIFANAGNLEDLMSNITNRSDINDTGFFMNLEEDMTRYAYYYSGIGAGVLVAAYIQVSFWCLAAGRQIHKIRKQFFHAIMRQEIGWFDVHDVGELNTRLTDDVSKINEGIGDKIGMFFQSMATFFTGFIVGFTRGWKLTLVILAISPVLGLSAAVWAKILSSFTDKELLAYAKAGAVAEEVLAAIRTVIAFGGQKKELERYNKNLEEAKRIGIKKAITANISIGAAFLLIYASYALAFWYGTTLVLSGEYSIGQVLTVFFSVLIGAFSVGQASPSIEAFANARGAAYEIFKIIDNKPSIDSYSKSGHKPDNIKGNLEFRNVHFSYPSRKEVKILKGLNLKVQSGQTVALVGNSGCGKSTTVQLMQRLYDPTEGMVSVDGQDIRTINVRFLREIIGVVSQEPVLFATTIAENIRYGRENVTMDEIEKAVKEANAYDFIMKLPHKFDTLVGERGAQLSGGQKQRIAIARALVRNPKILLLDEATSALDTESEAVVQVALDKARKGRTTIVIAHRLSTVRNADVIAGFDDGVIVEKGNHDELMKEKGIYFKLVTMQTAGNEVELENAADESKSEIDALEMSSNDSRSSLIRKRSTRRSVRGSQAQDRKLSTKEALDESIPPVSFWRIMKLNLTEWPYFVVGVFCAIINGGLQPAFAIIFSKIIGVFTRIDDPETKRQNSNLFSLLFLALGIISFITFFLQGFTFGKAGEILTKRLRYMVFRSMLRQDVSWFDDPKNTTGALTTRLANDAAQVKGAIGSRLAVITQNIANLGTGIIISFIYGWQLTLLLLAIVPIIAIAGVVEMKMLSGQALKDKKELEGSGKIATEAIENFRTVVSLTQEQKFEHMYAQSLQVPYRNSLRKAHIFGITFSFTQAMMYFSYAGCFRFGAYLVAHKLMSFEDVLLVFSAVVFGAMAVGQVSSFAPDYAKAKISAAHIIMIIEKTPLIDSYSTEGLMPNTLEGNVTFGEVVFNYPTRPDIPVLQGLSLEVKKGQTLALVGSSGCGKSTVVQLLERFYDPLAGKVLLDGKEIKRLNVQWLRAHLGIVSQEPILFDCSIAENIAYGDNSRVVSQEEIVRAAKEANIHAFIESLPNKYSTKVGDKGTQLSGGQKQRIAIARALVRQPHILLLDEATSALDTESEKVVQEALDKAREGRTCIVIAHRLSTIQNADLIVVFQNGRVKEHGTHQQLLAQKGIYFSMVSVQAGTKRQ

Structure (SMILES): C[N+](C)(C)CCOP(=O)([O-])OCCCCCCCCCCCCCCCCCCc1ccc(C2=C3C=CC=[N+]3[B-](F)(F)n3cccc32)cc1 [CLR1501]
- fold increase of experimental LogD compared to parent CLR1404 [1]: greater than 2 fold
- in vitro BBB permeability at 4°C compared to 37°C [2]: significantly higher
- polarized flux, basolateral-apical (BA) vs apical-basolateral (AB) [3]: significantly polarized flux in the brain-to-blood (BA) direction
- permeability change with Ko143 (BCRP inhibition) [4]: selectively increased
- permeability change with MK571 (MRP inhibition) [5]: selectively increased
- permeability (Pe) across iPSC-BMEC [6]: 54±3.2 ×10^−5 cm/min

Structure (SMILES): C[N+](C)(C)CCOP(=O)([O-])OCCCCCCCCCCCCCCCCCCc1ccc(I)cc1 [CLR1404, 18-(p-iodophenyl) octadecylphosphocholine]
- in vitro BBB permeability at 4°C compared to 37°C [2]: slight, but statistically insignificant, increase
- polarized flux, basolateral-apical (BA) vs apical-basolateral (AB) [3]: no significant evidence of polarized efflux
- permeability change with Ko143 (BCRP inhibition) [4]: did not affect
- permeability change with MK571 (MRP inhibition) [5]: did not affect
- permeability change with PSC833 (P-gp inhibition) [7]: did not affect
- Papp at 2 h, 1 μM [8]: 5.83 ×10⁻⁶ cm/s

Structure (SMILES): CN1/C(=C/C=C2\CCCC(/C=C/C3=[N+](C)c4ccccc4C3(C)C)=C2c2ccc(CCCCCCCCCCCCCCCCCCOP(=O)([O-])OCC[N+](C)(C)C)cc2)C(C)(C)c2ccccc21.[Cl-] [CLR1502]
- fold increase of experimental LogD compared to parent CLR1404 [1]: greater than 2 fold
- in vitro BBB permeability at 4°C compared to 37°C [2]: significantly higher
- polarized flux, basolateral-apical (BA) vs apical-basolateral (AB) [3]: significantly polarized flux in the brain-to-blood (BA) direction
- permeability change with Ko143 (BCRP inhibition) [4]: A similar pattern was observed
- permeability change with MK571 (MRP inhibition) [5]: A similar pattern was observed
- permeability (Pe) across iPSC-BMEC [6]: 26±4.9 ×10^−5 cm/min
- fold reduced permeability compared with CLR1501 ([6]; iPSC-derived BMEC Transwell, p<0.05): 2 fold

Reference: PMC5014630 (Molecular pharmaceutics, 2016)
